Reference: patent US8952024B2, “Herbicidal pyrimidone derivatives” (E I du Pont de Nemours and Company, priority 2009, dated 2015)

Assays:
Assay in all cases: Test D pre-/postemergence plant response
Format in all cases: in vivo
Conditions in all cases: Postemergence
[1] = system: Italian ryegrass (Lolium multiflorum)
Outline: (§1)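 Under greenhouse conditions for 14 to 21 days, plants treated pre- or postemergence with surfactant-formulated compound were compared by eye with untreated controls and scored 0–100 (100 = complete control; dash = no result).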

[2] = system: black mustard (Brassica nigra)
Outline: as §1

[3] = system: dayflower (Virginia (VA) dayflower, Commelina virginica)
Outline: as §1

[4] = system: field bindweed (Convolvulus arvensis)
Outline: as §1

[5] = system: groundsel (common groundsel, Senecio vulgaris)
Outline: as §1

[6] = system: itchgrass (Rottboellia cochinchinensis)
Outline: as §1

[7] = system: nutsedge (purple nutsedge, Cyperus rotundus)
Outline: as §1

[8] = system: prickly sida (Sida spinosa)
Outline: as §1

[9] = system: purslane (common purslane, Portulaca oleracea)
Outline: as §1

[10] = system: sowthistle (common sowthistle, Sonchus oleraceous)
Outline: as §1

[11] = 125 g ai/ha, scale 0 to 100 (0 no effect, 100 complete control)
[12] = 250 g ai/ha, scale 0 to 100 (0 no effect, 100 complete control)
[13] = 62 g ai/ha, scale 0 to 100 (0 no effect, 100 complete control)

SMILES	Plant response rating, Ryegrass, Italian ([1]; 31 g ai/ha, scale 0 to 100)	Plant response rating, Ryegrass, Italian [1, 11]	Plant response rating, Ryegrass, Italian [1, 12]	Plant response rating, Ryegrass, Italian [1, 13]	Plant response rating, Black Mustard ([2]; 31 g ai/ha, scale 0 to 100)	Plant response rating, Black Mustard [2, 11]	Plant response rating, Black Mustard [2, 12]	Plant response rating, Black Mustard [2, 13]	Plant response rating, Dayflower, VA ([3]; 31 g ai/ha, scale 0 to 100)	Plant response rating, Dayflower, VA [3, 11]	Plant response rating, Dayflower, VA [3, 12]	Plant response rating, Dayflower, VA [3, 13]	Plant response rating, Field Bindweed ([4]; 31 g ai/ha, scale 0 to 100)	Plant response rating, Field Bindweed [4, 11]	Plant response rating, Field Bindweed [4, 12]	Plant response rating, Field Bindweed [4, 13]	Plant response rating, Groundsel ([5]; 31 g ai/ha, scale 0 to 100)	Plant response rating, Groundsel [5, 11]	Plant response rating, Groundsel [5, 12]	Plant response rating, Groundsel [5, 13]	also measured
CCCCn1c(-c2ccccc2)ncc(C(=O)C2=C(O)C3CCC(C3)C2=O)c1=O (stereo not shown) [Compound 240]	0	35	35	35	70	98	98	80	35	70	75	60	60	70	70	70	100	100	100	100	Plant response rating, Itchgrass ([6]; 31 g ai/ha, scale 0 to 100): 75; Plant response rating, Itchgrass [6, 11]: 80; Plant response rating, Itchgrass [6, 12]: 80; Plant response rating, Itchgrass [6, 13]: 75; Plant response rating, Nutsedge, Purple ([7]; 31 g ai/ha, scale 0 to 100): 0; Plant response rating, Nutsedge, Purple [7, 11]: 5; Plant response rating, Nutsedge, Purple [7, 12]: 20; Plant response rating, Nutsedge, Purple [7, 13]: 5; Plant response rating, Prickly Sida ([8]; 31 g ai/ha, scale 0 to 100): 35; Plant response rating, Prickly Sida [8, 11]: 75; Plant response rating, Prickly Sida [8, 12]: 75; Plant response rating, Prickly Sida [8, 13]: 65; Plant response rating, Purslane ([9]; 31 g ai/ha, scale 0 to 100): 0; Plant response rating, Purslane [9, 12]: 50; Plant response rating, Purslane [9, 13]: 35; Plant response rating, Sowthistle ([10]; 31 g ai/ha, scale 0 to 100): 98; Plant response rating, Sowthistle [10, 11]: 98; Plant response rating, Sowthistle [10, 12]: 98; Plant response rating, Sowthistle [10, 13]: 98
COCCCn1c(-c2cc(F)cc(F)c2)ncc(C(=O)C2=C(O)C3CCC(C3)C2=O)c1=O (stereo not shown) [Compound 244]	5	35	60	15	50	95	98	75	30	65	70	50	20	65	70	35	100	100	100	100	Plant response rating, Itchgrass ([6]; 31 g ai/ha, scale 0 to 100): 60; Plant response rating, Itchgrass [6, 11]: 75; Plant response rating, Itchgrass [6, 12]: 75; Plant response rating, Itchgrass [6, 13]: 70; Plant response rating, Nutsedge, Purple ([7]; 31 g ai/ha, scale 0 to 100): 0; Plant response rating, Nutsedge, Purple [7, 11]: 10; Plant response rating, Nutsedge, Purple [7, 12]: 35; Plant response rating, Nutsedge, Purple [7, 13]: 0; Plant response rating, Prickly Sida ([8]; 31 g ai/ha, scale 0 to 100): 25; Plant response rating, Prickly Sida [8, 11]: 40; Plant response rating, Prickly Sida [8, 12]: 60; Plant response rating, Prickly Sida [8, 13]: 35; Plant response rating, Purslane ([9]; 31 g ai/ha, scale 0 to 100): 25; Plant response rating, Purslane [9, 11]: 50; Plant response rating, Purslane [9, 12]: 50; Plant response rating, Purslane [9, 13]: 50; Plant response rating, Sowthistle ([10]; 31 g ai/ha, scale 0 to 100): 75; Plant response rating, Sowthistle [10, 11]: 100; Plant response rating, Sowthistle [10, 12]: 100; Plant response rating, Sowthistle [10, 13]: 95
